Structures can show the parent of a compound that is named as a salt.
Experiments:
Assay type in all cases: in vivo, human
aphtha (canker sores) = assay: Case reports: mouth rinses with a quinoline derivative solution in patients with aphthae
Text: (§1) Hydroxychloroquine (HCQ) was obtained from Sanofi-Syntelabo, Inc. New York USA, quinine (Q) and quinidine sulfate were obtained from Rakah, Holon, Israel. The compounds were mixed with tap water. Chlorhexidine was obtained from LACER S.A., Barcelona, Spain.
A person, generally in good health, reported the presence of canker sores for several years (periodic recurrences of 3 to 4 episodes per year). […] The patient was seen five days after the appearance of the painful aphtha. They started oral rinses with 10 ml of hydroxychloroquine (HCQ) solution, 3.7 mg/ml, three times a day, each rinse for 3 to 5 min. […] They continued to rinse for about a week. No additional aphthous lesions appeared during 8 weeks of follow-up.
A person, in otherwise general good health, came with two painful major aphthae, one of 12 mm diameter on the left side of the lower lip mucosa and the second on the right latero-ventral side of the tongue, about 8 mm diameter. They reported the presence of recurrent aphthous lesions since they were […]. During the last year, they continuously suffered from recurrent episodes of major aphthae, with virtually no aphtae-free intervals. Each episode of aphthae usually lasted for 3 to 6 weeks. They started oral rinses with 10 ml of HCQ solution, 3.7 mg/ml, three times a day, each rinse for 3 to 5 min. […] Concomitantly, 2 new lesions of minor aphthae, 3 mm in diameter each, were seen, one on the left side of the upper lip mucosa and the other on the ventro-anterior side of the tongue. […] In total, they rinsed with the HCQ solution for 20 days.
A child, in otherwise general good health, reported the presence of recurrent aphthous lesions of different sizes for the last 2 years. The last episode had been about 3 months before examination. The lesions had disappeared within 2 weeks after using different conventional treatments. At clinical examination, one aphtha of about 3 mm diameter was found on the lower lip mucosa and another one about 6 mm diameter was found on the upper lip mucosa. Both lesions were painful. They started rinsing with 10 ml of HCQ solution, 2.5 mg/ml, three times a day, each rinse for 3 to 5 min. […] They reported to be free of any pain already after 24 hours from the start of rinsing. […], therefore, was able to eat everything. The patient was advised to continue rinsing with 10 ml of hydroxychloroquine (HCQ) solution, 3.7 mg/ml, three times a day, each rinse for 3 to 5 min for 7 additional days. […] They still continued with the rinses for 5 additional days, as recommended.
A person reported suffering from recurrent episodes of canker sores for many years, with 2 to 3 episodes per year. The last episode had occurred about 6 months before examination. They were diagnosed with diabetes mellitus, so that use of steroidal modalities for treatment of their aphthous lesions was contraindicated. […] They started rinsing with 10 ml of HCQ solution, 1.2 mg/ml, three times a day, each rinse for 3 to 5 min. After 24 hours from start of rinses they were free of any pain and was able to eat everything. […] They remained aphthae-free for 7 months.
A person, generally in good health, reports the presence of canker sores since childhood with about 8 to 10 recurrences per year. At clinical examination a minor painful aphtha was present on the mucosa of the lower lip. The ulcer was about 4-5 mm in diameter and was present for 8 days. […] They started to rinse with 10 ml of hydroxychloroquine (HCQ) solution, 1.2 mg/ml, three times a day, each rinse for 3 to 5 min.
A person presented a painful minor aphtha of about 3 mm in diameter in the right vestibulum of the lower jaw adjacent to the first molar. They reported the presence of pain and inconvenience for 2 days. In the past, they had experienced recurrences of such lesions every 3 to 4 months. They started to rinse with 10 ml of 0.085 mg/ml quinine solution for 3 to 5 minutes, about 5 to 7 times a day. […]

aphtha = assay: Case reports: rinse with quinoline derivative solution followed by chlorhexidine rinse in patients with aphthae
Text: as §1
A person, generally in good health, presented a most painful, distressing major aphtha of approximately 1 cm diameter on the ventro-lateral tongue. They had suffered the presence of such lesions for several years (recurrences of 6 to 8 episodes per year). The current lesion had been present for about one week. During examination 2 lymph nodes were palpated in the floor of mouth, probably due to a secondary infection. They started to apply a rinse with 3.72 mg/cc HCQ solution (for 3 to 5 minutes) followed by a rinse with 0.12% chlorhexidine alcohol free solution (for about 1 minute), 3 times a day. Two days later, the patient was totally free of pain and the size of the aphtha diminished to about 7 mm diameter.
A person, presented a painful minor aphtha on the ventro-lateral part of the tongue. They reported its appearance about 1 week ago. In the past, frequent episodes of minor aphthae had occurred every 2 months. They started to rinse with 10 ml of quinine sulfate Solution 3 mg/cc (for 3 to 5 minutes) followed by a rinse with 0.12% chlorhexidine alcohol free solution (for about 1 minute), 3 times a day.

[1] = tested on: oral aphthous stomatitis and oral mucositis; assay: General statements on treating oral aphthous stomatitis and oral mucositis in patients
Text: In experiments carried out with particular preferred compounds of the invention, the pain caused by ulcerative lesions disappeared often within hours, and the ulcers and other symptoms disappeared usually within days. For example, patients with life-long recurrent aphthae problems achieved quick relief of pains caused by aphthae ulcers after rinsing their mouth with aqueous solutions comprising said compounds. The effect is often enhanced when said quinoline derivative is used together with an antiseptic.
Quinine at levels up to 83 ppm is approved by FDA for use in beverages as a flavoring agent.
In other preferred embodiment of this invention, oral mucositis is treated by a quinine (Q) salt in solution or suspension, which is used several times a day for rinsing mouth without swallowing, followed by rinsing with chlorhexidine solution. The concentration of Q is preferably about 0.083 mg/ml, and chlorhexidine solution has preferably a concentration from 0.05% to 0.2%. The rinsing with each of the two components is preferably performed 3-5 times a day. Said Q solution may comprise Q dihydrochloride, Q hydrochloride, Q sulfate, and other Q salts. Said Q suspension may, for example, comprise Q sulfate. Stereoisomers of quinine and their salts, such as quinidine sulfate, have been also found active.

erosive lichen planus = assay: Case report: rinse and swallow of quinine solution in a patient with erosive lichen planus
Text: as §1
A person presented diffuse erosions/ulcerations of the buccal, labial and lingual mucosae that were present for at least 6 months. They complained of pain and difficulty to eat and speak. The erosive/ulcerative lesions were clinically specific for erosive lichen planus. They started to rinse (for 5 to 10 min) and swallow about 10- 20 ml of 0.085 mg/ml quinine solution, 5 to 7 times a day. […] They were able to maintain a stable asymptomatic condition of their lichen planus by means of quinine solution during about 1 year follow-up period.

[2] = Example 2: HCQ solution 3.7 mg/ml
[3] = Example 2: HCQ solution 3.7 mg/ml, three times a day
[4] = Example 3: HCQ solution 2.5 mg/ml, three times a day
[5] = Example 7: 0.085 mg/ml quinine solution, rinse and swallow

Q: Which “follow-up without additional aphthous lesions” value (aphtha (canker sores); Example 1: HCQ solution 3.7 mg/ml, rinsed about a week) does the source give for `CCN(CCO)CCCC(C)Nc1ccnc2cc(Cl)ccc12` (centres unmarked) [HCQ, Hydroxychloroquine] here?
A: 8 weeks

Q: And the “state of the aphtha 24 hours after start of treatment” value (aphtha (canker sores); Example 1: minor aphtha, HCQ solution 3.7 mg/ml, three times a day)?
A: almost disappeared

Q: And the “time after start of treatment until free of any pain” value (aphtha (canker sores); Example 1: person, minor aphtha, rinses 10 ml HCQ solution 3.7 mg/ml, three times a day, 3 to 5 min)?
A: Twenty-four

Q: What about the “new minor aphtha (3 mm) on the lip after 4 more days of rinsing” value (aphtha (canker sores); [2]) of the same compound?
A: diminished significantly in its size

Q: And the “new minor aphtha (3 mm) on the tongue after 4 more days of rinsing” value (aphtha (canker sores); [2])?
A: disappeared

Q: What about the “pain from the two new minor aphthous lesions” value (aphtha (canker sores); [2]) of the same compound?
A: did not cause any pain whatsoever

Q: And the “follow up with no new aphthous lesions” value (aphtha (canker sores); Example 2: HCQ solution 3.7 mg/ml, rinsed 20 days in total)?
A: 3 months

Q: What about the “aphtha of the tongue (about 8 mm), 5 days later” value (aphtha (canker sores); [3]) of the same compound?
A: completely disappeared

Q: And the “major aphtha of the lower lip (12 mm), 5 days later” value (aphtha (canker sores); [3])?
A: decreased in size to about half its original size

Q: What about the “major aphtha on the lower lip mucosa after 6 additional days” value (aphtha (canker sores); Example 2: HCQ solution 3.7 mg/ml, 5 + 6 days, left a pronounced scar) of the same compound?
A: disappeared completely

Q: What about the “time after start of rinses until pain completely disappeared” value (aphtha (canker sores); Example 2: person, two major aphthae, 10 ml HCQ solution 3.7 mg/ml, three times a day, 3 to 5 min) of the same compound?
A: 24 h

Q: What about the “diameter of aphtha on the lower lip after 5 days (initially about 3 mm)” value (aphtha (canker sores); [4]) of the same compound?
A: about 1 mm

Q: What about the “time from start of rinsing until free of any pain” value (aphtha (canker sores); [4]) of the same compound?
A: 24 h

Q: What about the “follow up after cessation of rinses without new aphthae” value (aphtha (canker sores); Example 3: HCQ solution 2.5 then 3.7 mg/ml) of the same compound?
A: 5 weeks

Q: And the “time until aphtha on the lower lip disappeared completely after continuing with 3.7 mg/ml” value (aphtha (canker sores); Example 3: after 5 days at 2.5 mg/ml, HCQ solution 3.7 mg/ml three times a day)?
A: ≤ 2 days

Q: What about the “lesion on upper lip (about 6 mm) after 5 days” value (aphtha (canker sores); Example 3: child, 10 ml HCQ solution 2.5 mg/ml, three times a day, 3 to 5 min) of the same compound?
A: almost disappeared

Q: What about the aphthae-free period (aphtha (canker sores); Example 4: HCQ solution 1.2 mg/ml) of the same compound?
A: 7 months

Q: What about the “state of the aphtha after 7 days of rinsing” value (aphtha (canker sores); Example 4: HCQ solution 1.2 mg/ml, three times a day) of the same compound?
A: almost disappeared

Q: What about the “time from start of rinses until free of any pain” value (aphtha (canker sores); Example 4: person, diabetes mellitus, major aphthous lesion about 8 mm, 10 ml HCQ solution 1.2 mg/ml, three times a day) of the same compound?
A: 24 h

Q: What about the “follow up with no new aphthae” value (aphtha (canker sores); Example 5: HCQ solution 1.2 mg/ml) of the same compound?
A: 4 months

Q: What about the “time until aphtha completely disappeared” value (aphtha (canker sores); Example 5: HCQ solution 1.2 mg/ml, three times a day) of the same compound?
A: three

Q: What about the “time of rinses until no pain” value (aphtha (canker sores); Example 5: person, minor aphtha 4-5 mm, 10 ml HCQ solution 1.2 mg/ml, three times a day) of the same compound?
A: one

Q: And the “diameter of the aphtha two days later (initially approximately 1 cm)” value (aphtha; Example 8: 3.72 mg/cc HCQ rinse followed by 0.12% chlorhexidine rinse, 3 times a day)?
A: about 7 mm

Q: What about the “state of the aphtha after 2 additional days of treatment” value (aphtha; Example 8: 3.72 mg/cc HCQ rinse followed by 0.12% chlorhexidine rinse, 2 + 2 days) of the same compound?
A: completely disappeared

Q: And the “time until totally free of pain” value (aphtha; Example 8: person, major aphtha approx. 1 cm, probable secondary infection, 3.72 mg/cc HCQ rinse followed by 0.12% chlorhexidine rinse, 3 times a day)?
A: Two

Q: `C=C[C@H]1C[N@@]2CC[C@H]1C[C@@H]2[C@@H](O)c1ccnc2ccc(OC)cc12` [quinidine sulfate] was tested. Which “activity in treating oral mucositis” value ([1]; general statement) did it give?
A: active

Q: With `C=C[C@H]1C[N@@]2CC[C@H]1C[C@H]2[C@H](O)c1ccnc2ccc(OC)cc12` [quinine sulfate] as the compound, how does the “time until pain decreased significantly” value (aphtha; Example 9: person, minor aphtha, 10 ml quinine sulfate solution 3 mg/cc followed by 0.12% chlorhexidine rinse, 3 times a day) read?
A: ≤ 24 h

Q: What about the “time until all the inconvenience disappeared” value (aphtha; Example 9: quinine sulfate solution 3 mg/cc followed by 0.12% chlorhexidine rinse, 3 times a day) of the same compound?
A: ≤ 48 h

Q: Which “outcome in patients with major aphtha accompanied by a secondary infection” value ([1]; mouth rinsing with 0.083 mg/ml of quinine, and optionally chlorhexidine, several minutes, several times a day) does the source give for `C=C[C@H]1C[N@@]2CC[C@H]1C[C@H]2[C@H](O)c1ccnc2ccc(OC)cc12` [quinine] here?
A: relief of pains and healing

Q: What about the “erosive/ulcerative lesions after about 4 weeks” value (erosive lichen planus; [5]) of the same compound?
A: marked healing

Q: What about the “symptoms of the lesions after about 4 weeks” value (erosive lichen planus; [5]) of the same compound?
A: completely asymptomatic

Q: What about the “follow-up period with stable asymptomatic condition of lichen planus” value (erosive lichen planus; Example 7: maintained by quinine solution) of the same compound?
A: about 1 year

Q: And the “pain and masticatory function after 3 days” value (erosive lichen planus; Example 7: person, rinse (5 to 10 min) and swallow 10-20 ml of 0.085 mg/ml quinine solution, 5 to 7 times a day)?
A: significant amelioration

Q: And the “time until ulcer healed completely” value (aphtha (canker sores); Example 6: 0.085 mg/ml quinine solution, 5 to 7 times a day)?
A: ≤ 4 days

Q: What about the “time until pain and inconvenience disappeared” value (aphtha (canker sores); Example 6: person, minor aphtha about 3 mm, 10 ml 0.085 mg/ml quinine solution, 3 to 5 minutes, 5 to 7 times a day) of the same compound?
A: 2 days

Q: What about the “follow-up with no further recurrences” value (aphtha (canker sores); Example 10: 0.085 mg/ml quinine solution) of the same compound?
A: about 6 months

Q: And the “time until disappearance of the aphtha” value (aphtha (canker sores); Example 10: 0.085 mg/ml quinine solution, rinse and swallow)?
A: about 4 days

Q: And the “time until free of any symptoms” value (aphtha (canker sores); Example 10: person, minor aphtha about 4 mm, 10 ml 0.085 mg/ml quinine solution, about 5 times per day, rinse 3 to 5 min and swallow)?
A: ≤ 24 h

Reference: patent US20070155786A1, “Methods for treating oral aphthous stomatitis and oral mucositis” (priority 2004, published 2007)
